From ChEMBL document CHEMBL1201862, “PubChem BioAssay data set” (2004) come the findings set out here.

Structures are written as SMILES.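 Assay format: 96-well plates, 48-hour exposure. At the GI50, growth is halved.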 Calls of active or inactive are those of the source. Cut-off read from the data, not from the text of the source: active = GI50 up to about 1.1 µM and inactive = higher.

Experiment in all cases: NCI anticancer screen, dose series, 48 h
The test system of assay [1] is UO-31.
The subject of assay [2] is U-251.
For assay [3], the system named is HCT-116.
In assay [4] the test system is TK-10.
In assay [5] the test system is LOX IMVI.
Assay [6] relates to EKVX.
For assay [7], the system named is SW-620.
Assay [8] concerns MOLT-4.
In assay [9] the test system is M14.
In assay [10] the test system is SNB-19.
Assay [11] deals with SK-MEL-28.
The test system of assay [12] is HT-29.
The test system of assay [13] is IGROV-1.
The subject of assay [14] is KM12.
For assay [15], the system named is UACC-62.
In assay [16] the test system is HCT-15.
Assay [17] relates to HOP-92.

Consider `COC(=O)C1=CC2OC1(C)CCC2=O` (stereo not drawn), for which the GI50 is > 100 µM (inactive) in [1]; > 100 µM (inactive) in [2]; 85.3 µM (inactive) in assay [3]; > 100 µM (inactive) in assay [4]; > 100 µM (inactive) in assay [5]; > 100 µM (inactive) in assay [6]. Also, the GI50 was 74.6 µM (inactive) in assay [7]; 45.9 µM (inactive) in assay [8]; 44.6 µM (inactive) in assay [9]; > 100 µM (inactive) in assay [10]; > 100 µM (inactive) in [11]; > 100 µM (inactive) in [12]. Further, the GI50 in [13] was > 100 µM (inactive); in assay [14], > 100 µM (inactive); in assay [15] it was > 10 µM (inactive); in assay [16] it was 67.9 µM.
`O=C1NCCCC12CCCNC2=O`: the GI50 in assay [1], in assay [2], in [3], in [5], in [6] and in [7] was > 100 µM (inactive) each time. The GI50 in assay [8], in assay [9], in assay [10], in assay [11], in assay [12] and in [13] was > 100 µM (inactive) in each case. Also, the GI50 in assay [14] was > 100 µM (inactive); in assay [16], > 100 µM.
In the case of `Cc1ccc(N2C(=O)N(c3ccc(C)cc3)C3(SC=NN3C)C2=O)cc1` (stereo not drawn), the GI50 in assay [1] was 42 µM (inactive); in assay [2], > 100 µM (inactive); in [3], 46.6 µM (inactive); in assay [4] it was 66.4 µM (inactive); in assay [5], 32.3 µM (inactive); in [6], > 100 µM (inactive). Also, the GI50 in assay [17] is > 100 µM (inactive); in [7] it was > 100 µM (inactive); in assay [8], 63.2 µM (inactive); in assay [9] it was 69.8 µM (inactive); in [10] it was > 100 µM (inactive); in assay [11] it was > 100 µM (inactive). Besides, the GI50 in assay [12] is 32.4 µM (inactive); in assay [13] it was > 100 µM (inactive); in [14], 47.6 µM (inactive); in assay [15], 74 µM (inactive).
As for `O=C1c2ccccc2-c2cccc3ccc(Cc4ccc5ccccc5c4)c1c23`, the GI50 in [1] was > 100 µM (inactive); in assay [2] it was 98.2 µM (inactive); in assay [3] it was > 100 µM (inactive); in [4], > 100 µM (inactive); in assay [6], > 100 µM (inactive); in assay [17] it was 49.4 µM (inactive). In addition, the GI50 in [7], in assay [8], in assay [9], in [10], in [11] and in [12] was > 100 µM (inactive) throughout. Besides, the GI50 in assay [13] was > 100 µM (inactive); in assay [14], > 100 µM (inactive); in assay [15], > 100 µM (inactive); in [16], > 100 µM.
As for `CN1C=C(C(N)=O)Cc2ccsc21`, the GI50 in assay [1], in assay [2], in assay [3], in assay [6], in [17] and in [7] was > 100 µM (inactive) throughout. In addition, the GI50 in assay [8], in [9], in [10], in assay [11], in assay [12] and in assay [13] was > 100 µM (inactive) each time. Further, the GI50 in assay [14] was > 100 µM (inactive); in assay [15] it was > 100 µM (inactive); in assay [16] it was > 100 µM.
As for `CC(C)(C)c1cc(Cc2ccc(S(C)(=O)=O)cc2)c(O)c(C(C)(C)C)c1`, the GI50 was 16.1 µM (inactive) in assay [1]; 15.1 µM (inactive) in assay [2]; 14 µM (inactive) in assay [3]; 17.9 µM (inactive) in assay [4]; 14.6 µM (inactive) in assay [5]; 15.1 µM (inactive) in assay [6]. Also, the GI50 in [7] is 17.1 µM (inactive); in assay [8], 12.3 µM (inactive); in assay [9], 15.4 µM (inactive); in [10], 15.5 µM (inactive); in [11] it was 18.2 µM (inactive); in [12], 14.7 µM (inactive). Further, the GI50 in [13] is 14.9 µM (inactive); in assay [14], 16.4 µM (inactive); in assay [15], 13.1 µM (inactive); in [16], 16.9 µM.
With `CCOc1cccc2[s+]snc12`, the GI50 in assay [1] was 37.3 µM (inactive); in assay [2], 33.8 µM (inactive); in assay [3] it was > 100 µM (inactive); in [4], > 100 µM (inactive); in assay [5] it was 50.1 µM (inactive); in assay [6] it was > 100 µM (inactive). Besides, the GI50 in assay [7] is > 100 µM (inactive); in [8] it was 78.2 µM (inactive); in [9], > 100 µM (inactive); in assay [10], > 100 µM (inactive); in assay [11], > 100 µM (inactive); in assay [12], > 100 µM (inactive). Further, the GI50 in assay [13] was > 100 µM (inactive); in assay [14], > 100 µM (inactive); in assay [15], 40.3 µM (inactive); in assay [16], > 100 µM.
Take `CC(=O)Nc1ccc(C(=O)N2N=C(C)/C(=C/c3cccc(O)c3)C2=O)cc1`: the GI50 in assay [1], in assay [2], in assay [3], in assay [4], in [5] and in assay [6] was > 100 µM (inactive) in each case. The GI50 in [7], in [8], in [9], in assay [10], in [11] and in assay [12] was > 100 µM (inactive) each time. Besides, the GI50 in assay [16] was > 100 µM.
Consider `CN(C)c1ccc(C=C2C(=O)OC(C)(C)OC2=O)cc1Br`, for which the GI50 was > 100 µM (inactive) in [1]; > 100 µM (inactive) in assay [2]; 48.9 µM (inactive) in assay [3]; > 100 µM (inactive) in [4]; > 100 µM (inactive) in [5]; > 100 µM (inactive) in [6]. Further, the GI50 in [17] was 29.4 µM (inactive); in assay [7], > 100 µM (inactive); in assay [8], > 100 µM (inactive); in assay [9], > 100 µM (inactive); in assay [10], > 100 µM (inactive); in [11], > 100 µM (inactive). Further, the GI50 in [12], in assay [14] and in assay [15] was > 100 µM (inactive) each time.
In the case of `N/N=c1\c2ccccc2c2ccc3c4ccccc4/c(=N\N)c3c12`, the GI50 in assay [1], in [2], in assay [3], in assay [6], in assay [17] and in assay [7] was > 100 µM (inactive) in each case. The GI50 in assay [8], in assay [9], in assay [10], in [11], in assay [12] and in [13] was > 100 µM (inactive) throughout. The GI50 in [14] was > 100 µM (inactive); in [15] it was > 100 µM (inactive); in assay [16], > 100 µM.
For the compound `CCC1N2CCCCC2[C@@H]2c3[nH]c4ccccc4c3CCN12` (stereo partly drawn), the GI50 in assay [1], in assay [2], in assay [3], in assay [4], in [6] and in assay [17] was > 100 µM (inactive) in each case. In addition, the GI50 in [7], in assay [8], in assay [9], in assay [10], in assay [11] and in [12] was > 100 µM (inactive) in each case. In addition, the figures for the GI50 in [13], in assay [15] and in assay [16] were > 100 µM (inactive), > 100 µM (inactive) and > 100 µM, respectively.
Regarding `Cc1ccc2c(c1-c1ccccc1)C(=O)OC2`, the GI50 in assay [1] was 75 µM (inactive); in [2], > 100 µM (inactive); in assay [3] it was > 100 µM (inactive); in assay [4], > 100 µM (inactive); in [6] it was 17.1 µM (inactive); in [7], > 100 µM (inactive). Moreover, the GI50 was 94.4 µM (inactive) in assay [8]; > 100 µM (inactive) in [9]; > 100 µM (inactive) in assay [10]; > 100 µM (inactive) in [11]; > 100 µM (inactive) in [12]; > 100 µM (inactive) in assay [13]. Moreover, the GI50 in [14] was > 100 µM (inactive); in assay [15], 28.7 µM (inactive); in assay [16] it was > 100 µM.
As to `CC(=O)OCc1nnn2c1C(OC(C)=O)CC2` (stereo not drawn), the GI50 in assay [1], in assay [2], in assay [3], in assay [4], in assay [6] and in assay [17] was > 100 µM (inactive) each time. Further, the GI50 in assay [7], in assay [8], in assay [9], in [10], in assay [11] and in assay [12] was > 100 µM (inactive) throughout. The GI50 was > 100 µM (inactive) in assay [13], > 100 µM (inactive) in [14], > 100 µM (inactive) in assay [15] and > 100 µM in assay [16].
